Experimental data as given in patent publication US9180183B2, “Phospholipid drug analogs” (Telormedix SA, priority 2010, dated 2015).

What was measured:
[1] = Plasma stability in human plasma (first experiment); type: in vitro ADME
Procedure: (§1) A 10 μl of MeOH was added to improve solubility. […] The supernatant fractions were analyzed by LC/MS/MS. […] Percent loss of substrate in incubations was determined to estimate the in vitro half life of the test compound. Samples were analyzed on a UPLC (Waters) interfaced with a Premiere XE Triple Quadrupole (Waters).

human whole blood = experiment: Cytokine secretion in human whole blood assay (ELISA); type: cell-based; conditions: for IL-12p40 levels: all donors
Procedure: Before drawing the blood, the compounds were added to 96 well round bottom plates in a 10× diluted sample at 20 ul. The compounds were diluted in RPMI media without serum but with antibiotics. Antibiotics were added at a 10× concentration. After drawing the blood, the whole blood sample was gently mixed to obtain a homogeneous sample, and 180 ul was added to each well.
All compounds were setup in concentrations at 0-0.01-0.03-0.1-0.5-2.0-10.0 micromolar as the final concentration. Vehicle control was DMSO control, where we used the highest concentration used for the compounds. After addition of blood, all plates were gently agitated at 37° C. and 5% CO2 until harvest.
Concentrations of cytokines were determined by ELISA from R&D Systems. The results were analyzed in Graph Pad Prism in order to prepare dose-response curves, and for determination of EC50 values. FACS analysis was made by using Becton-Dickinson FACSDiva software and subsequently illustrated in Graph Pad Prism.

[2] = Plasma stability in rat plasma (first experiment); type: in vitro ADME
Procedure: as §1

[3] = Plasma stability in rabbit plasma (first experiment); type: in vitro ADME
Procedure: as §1

[4] = system: recombinant protein antigens from Plasmodium falciparum and Mycobacterium ulcerans; experiment: Pilot immunization study with adjuvanted protein antigens in mice; type: in vivo; conditions: three s.c. immunizations with 10 nMol adjuvant
Procedure: A pilot immunization study was conducted using Compound A and SC12 adjuvanted protein antigens. The immunization experiments were performed with two recombinant proteins expressed in E. coli. One antigen was derived from the malaria parasite Plasmodium falciparum and the other one from Mycobacterium ulcerans, which cause the ulcerative skin disease Buruli ulcer.

[5] = HPLC retest of stored compound A samples; type: physicochemical; conditions: for HPLC purity: room temperature, natural light
Procedure: (§2) At this point, a stability study was conducted on batch CH730/16/8g. The following conditions of storage were tested: • solid at room temperature (about 25° C.) and in presence of light • solid at external temperature (28-35° C.) under the sun-light • solid at +4° C. • solution in chloroform at room temperature and in presence of light • solution in chloroform at +4° C. • solution in chloroform at external temperature (28-35° C.) under the sun-light

[6] = Stability study of compound A under storage conditions (HPLC); type: physicochemical
Procedure: as §2

[7] = Plasma stability in minipig plasma (first experiment); type: in vitro ADME
Procedure: as §1

PBMCs = experiment: IL-6 and TNF-alpha secretion in PBMCs (ELISA), Model 2; type: cell-based, human; conditions: three donors
human PBMCs = experiment: IL-6 secretion in human PBMCs, two batches of Compound A and SC12; type: cell-based; conditions: PBMCs; 10-1-0,1-0.01 micromolar
Procedure: PBMCs were purified from two donors and plated into 96 well plates at 2×10^5 cells/well in RPMI media including human 2% heat inactivated AB serum, glutamine, Pen-strep and R-mercapto-ethanol. […] The conditioned media was removed for ELISA analyses for IL-6, and the EC50 value determined for each compound and each batch.
All compounds were tested in four concentrations (10-1-0, 1-0.01 micromolar).
Concentrations of IL-6 were determined by ELISA from R&D Systems using the Microsoft Excel software. The results were analyzed in Graph Pad Prism in order to prepare dose-response curves, and for determination of EC50 values.

HLA-DR+/CD20+ B cells = experiment: FACS analysis of B cell activation in whole blood; type: cell-based, human; conditions: 24 hours; 2 and 10 uM; three donors
Procedure: The FACS staining was performed according to the manufacturer's instructions. Lysis of red blood cells was performed before FACS staining in order to minimize auto-florescence. To include as many B cells and DCs in the study as possible the FACS analyses were performed on 500,000 cells in total for each staining. […] The results of the individual analysis were present as Mean Fluorescence Intensity
The analysis of expression of the activation marker CD40 on B cells was made on double positive HLA-DR (MHC class II) (P4 gate) and CD20 cells (B cell marker) (P8 gate).

[8] = system: AY-27 rat bladder cancer cell-line
[9] = Serum exposure after intravesical chronic treatment in mouse
Procedure: Serum samples were taken at time points: day 0, 2 hours, day 1, 24 hours, and day 6, 2 hours.
Samples were evaporated and re-suspended in 70 microliters of acetonitrile/methanol 1:1.

[10] = system: Cutaneous Squamous Cell Carcinoma (SCC) cell lines SCL-I, SCL-II, SCC-12, SCC-13; experiment: Proapoptotic and cytotoxic effects on cutaneous SCC cell lines (real-time cell analysis, microscopy); type: cell-based, human; conditions: cutaneous SCC cell lines
Procedure: SCC cells are grown under standard conditions (10% FBS).
Time and dose dependency of effects on total cell numbers have been investigated by real-time cell analysis, which is based on continuous monitoring of electric conductance in microtiter wells (E-plates, Roche), which corresponds to the cell numbers. […] For these assays 4 cell lines should be used to obtain a representative overview on the effects on SCC cells.

[11] = system: 73 primary molecular targets (human recombinant receptor types and subtypes or membrane fraction from rodent tissue homogenates); experiment: Radioligand binding assay among 73 primary molecular targets; conditions: SC12 at 30 microM
[12] = system: HLA-DR+/CD11c+/CD123- mDCs; experiment: FACS analysis of myeloid DC activation in whole blood; type: cell-based, human; conditions: 24 hours; 0.1 and 0.5 uM; three donors
Procedure: The FACS analysis for donor 1 and donor 2 was made on another day than donor 3. The compound concentrations were as follows:
The FACS analysis was used to identify whether the test compounds could induce activation of B cells, and two different subsets of dendritic cells, namely the myeloid CD11c+/CD123− DCs and the plasmacytoid CD11c−/CD123+ DCs. The following markers were studied to identify the activation status of the different subsets:
The FACS staining was performed according to the manufacturer's instructions. Lysis of red blood cells was performed before FACS staining in order to minimize auto-florescence. To include as many B cells and DCs in the study as possible the FACS analyses were performed on 500,000 cells in total for each staining. A P1 gate was set only to include relevant cells on FSC vs. SSC (see FIGS. 12-15). The results of the individual analysis were present as Mean Fluorescence Intensity
The analysis of myeloid DCs was based on HLA-DR+/CD11c+/CD123−cells, thus all analyzed cells was included in the HLA-DR+ (P3) gate and CD11c+/CD123− (Q4) gate (see gates in FIGS. 13-15).

[13] = published data, Clarke et al. 2009; cited from earlier work
[14] = Solubility in organic solvents; type: physicochemical; conditions: methanol, ethanol, dichloromethane, ethyl acetate, acetonitrile, acetone, chloroform
[15] = whole blood, 6 hours incubation
[16] = whole blood, 24 hours incubation
[17] = batch CH730/16/8G, solid, external T and light, t = 2 days
[18] = batch CH730/16/8G, solid, external T and light, t = 6 days
[19] = batch CH730/16/8G, solution in CHCl3, RT and light, t = 0
[20] = batch CH730/16/8G, solution in CHCl3, RT and light, t = 1 day
[21] = batch CH730/16/8G, solution in CHCl3, RT and light, t = 5 days
[22] = batch CH730/16/8G, solution in CHCl3, RT and light, t = 7 days
[23] = batch CH730/16/8G, solution in CHCl3, RT and light, t = 11 days
[24] = batch CH730/16/8G, solution in CHCl3, T about 30° C. without light, t = 1 day
[25] = batch CH730/16/8G, solution in CHCl3, external T and light, t = 1 day

CCCCCCCC/C=C\CCCCCCCC(=O)OCC(COP(=O)(O)OCCNC(=O)c1ccc(Cn2c(=O)[nH]c3c(N)nc(OCCOC)nc32)cc1)OC(=O)CCCCCCC/C=C\CCCCCCCC (stereo not shown) [Compound A, 2-(4-((6-amino-2-(2-methoxyethoxy)-8-oxo-7H-purin-9(8H)-yl)methyl)benzamido)ethyl 2,3-bis(oleoyloxy)propyl phosphate]
stability classification [1]: unstable | range of IL-6 secretion (human whole blood; whole blood, three donors): 4000 to 8000 pg/mL | ranges of IFN-alpha secreted (human whole blood; whole blood, three donors): 1000 to 2000 pg/mL | IL-12p40 levels (human whole blood; [15]): 8.000 to 12.000 pg/mL | IL-12p40 levels (human whole blood; [16]): 20.000 to 25.000 pg/mL | stability classification [2]: unstable | stability classification [3]: unstable | local side effects [4]: No local side effects | stability (in words) ([5]; at room temperature and/or in the presence of light): not a stable compound | HPLC purity ([5]; Test date: Jun. 10, 2009): Purity: 57.5% | HPLC purity ([5]; Test date: Jun. 11, 2009): Purity: 81.4% | HPLC purity ([5]; Test date: May 20, 2009): Purity: 89.6% | HPLC purity ([5]; tested Jun. 10, 2009, Retest date: Jun. 16, 2009): Purity: 44.8% | HPLC purity ([5]; tested Jun. 11, 2009, Retest date: Jun. 18, 2009): Purity: 71.5% | HPLC purity ([5]; tested May 20, 2009, Retest date: Jun. 12, 2009): Purity: 67.2% | HPLC purity ([5]; tested May 20, 2009, Retest date: Jun. 17, 2009): Purity: 58.9% | degradation (in words) ([6]; T>25° C. and in the presence of light): rapid degradation | HPLC % at RRT = 1 (main peak) [6, 17]: 37.6% | HPLC % of impurity at RRT = 1.06 [6, 17]: 9.2% | HPLC % of impurity at RRT = 1.11 [6, 17]: 27.9% | HPLC % of impurity at RRT = 1.26 [6, 17]: 14.8% | HPLC % at RRT = 1 (main peak) [6, 18]: 35.4% | HPLC % of impurity at RRT = 1.06 [6, 18]: 17.8% | HPLC % of impurity at RRT = 1.14 [6, 18]: 7.2% | HPLC % of impurity at RRT = 1.17 [6, 18]: 12.6% | HPLC % of impurity at RRT = 1.28 [6, 18]: 5.5% | HPLC % at RRT = 1 (main peak) [6, 19]: 81.4% | HPLC % of impurity at RRT = 1.11 [6, 19]: 8.6% | HPLC % of impurity at RRT = 1.23 [6, 19]: 4.2% | HPLC % at RRT = 1 (main peak) [6, 20]: 80.9% | HPLC % of impurity at RRT = 1.11 [6, 20]: 8.7% | HPLC % of impurity at RRT = 1.24 [6, 20]: 4.4% | HPLC % at RRT = 1 (main peak) [6, 21]: 79.3% | HPLC % of impurity at RRT = 1.10 [6, 21]: 9.9% | HPLC % of impurity at RRT = 1.24 [6, 21]: 4.2% | HPLC % at RRT = 1 (main peak) [6, 22]: 80.5% | HPLC % of impurity at RRT = 1.11 [6, 22]: 8.7% | HPLC % of impurity at RRT = 1.27 [6, 22]: 3.9% | HPLC % at RRT = 1 (main peak) [6, 23]: 82.0% | HPLC % of impurity at RRT = 1.16 [6, 23]: 6.9% | HPLC % of impurity at RRT = 1.29 [6, 23]: 3.7% | HPLC % at RRT = 1 (main peak) [6, 24]: 80.7% | HPLC % of impurity at RRT = 1.11 [6, 24]: 8.6% | HPLC % of impurity at RRT = 1.27 [6, 24]: 3.8% | HPLC % at RRT = 1 (main peak) [6, 25]: 80.3% | HPLC % of impurity at RRT = 1.11 [6, 25]: 8.0% | HPLC % of impurity at RRT = 1.27 [6, 25]: 3.2% | stability classification [7]: unstable

CC(C)Cn1cnc2c(N)nc3ccccc3c21 [Imiquimod, reference compound]
induction of IL-6 and TNF-alpha secretion (in words) (PBMCs): weak ability to induce the cytokines | induction of DC secreted cytokines (in words) (human whole blood; supernatant from whole blood cell assays): weak inducer | IL-6 secretion (in words) (human whole blood; whole blood, 6 h incubation): low and insignificant amounts of IL-6 | IFN-alpha secretion (in words) (human whole blood; [15]): did not induce IFN-alpha secretion | IL-10 production (in words) (human whole blood; [15]): no IL-10 production was seen | IL-12p40 secretion (in words) (human whole blood; [15]): did not induce IL-12p40 secretion | IL-12p40 secretion (in words) (human whole blood; [16]): did not induce IL-12p40 | IL-6 induction (in words) (human PBMCs): only active in inducing IL-6 at the highest concentration | CD40 expression (MFI, in words) (HLA-DR+/CD20+ B cells): increased expression in all three donors | Range of weight of the rat bladders ([8]; 0.5 ml intravesical instillation (Imiquimod 0.1%, SC12 0.38%) on day 2 and 5, day 12): 0.0814-0.1891 grams | signs of toxicity (in words) ([8]; intravesical instillation on day 2 and 5): No signs of toxicity | Tumor free (% of rats) ([8]; of 14 rats per group, day 12): 35.7% | Tumor free (number of rats) ([8]; of 14 rats per group, day 12): 5 | pT2 Tumor (% of rats) ([8]; of 14 rats per group, day 12): 64.3% | pT2 Tumor (number of rats) ([8]; of 14 rats per group, day 12): 9 | Imiquimod levels in serum, Mean ± S.D. ([9]; intravesical 0.1%, Day 1, 24 hours, LLOQ 2.5 ng/ml): <LLOQ | accumulation in serum (in words) ([9]; intravesical chronic treatment, 6 days): no accumulation | cell numbers (real-time cell analysis, electric conductance) [10]: reduced cell numbers | binding to receptors associated with pain-related syndromes (e.g. adenosine and sodium channel) [11]: shown to bind | CD80 expression in mDCs (MFI, in words) [12]: weak expression of CD80 in donor 1 and 2

CCOCc1nc2c(N)nc3ccccc3c2n1CC(C)(C)O [Resiquimod]
IFN-alpha secreted [13]: < 200 pg/mL

COCCOc1nc(N)c2[nH]c(=O)n(Cc3ccc(C(=O)O)cc3)c2n1 [Acid 7, 4-((6-amino-2-(2-methoxyethoxy)-8-oxo-7H-purin-9(8H)-yl)methyl)benzoic acid]
solubility in common solvents [14]: not soluble
